The record followed here is patent US7803792B2, “Quaternary ammonium compounds” (Asahi Kasei Pharma Corporation, priority 2002, dated 2010).

For series [1], the system named is bile duct partial ligation model. Kind of series: Cholestasis-caused hepatopathy model, bile duct partial ligation, IBAT inhibiting compounds, blood after 24 hours (Test Example 13). The format is in vivo, rat. Particulars: blood 24 hours after administration, N = 3, average ± standard error. How it is done:
“Cholestasis-Caused Hepatopathy” Model (Bile Duct Partial Ligation Model)
In this test example, the model of cholestasis-caused hepatopathy was tested according to the method described in Test Example 5.
That is, the abdomens of 8 to 10 weeks old SD (IGS) male rats were cut open under anesthesia with pentobarbital and partial ligation surgery of the bile duct was carried out. After the surgery, 200 mg/kg of bile acid and an IBAT inhibiting compound were forcibly orally administered to the rats (each n=3). As a control group, physiological saline […] was administered (n=3). To observe the effect of the partial ligation surgery, a sham group (the abdomen was cut open under anesthesia with pentobarbital but partial ligation surgery of the bile duct was not carried out) and an untreated group were established (each n=3). After 24 hours from the administration a blood sample was taken from the abdominal aorta and AST, ALT, and ALP in the blood were measured using the method described in Test Example 5.

The subject of a further series is bile acid loaded model. Kind of series: Cholestasis-caused hepatopathy model, bile acid loaded model, 4.5 days (Test Example 14). The format is in vivo, rat. The settings on record: administration period 4.5 days, N = 6, average ± standard error. As for the experimental part:
“Cholestasis-Caused Hepatopathy” Model (Bile Acid Loaded Model)
In this test example, the model of hepatopathy due to loading of bile acid was carried out similarly to the protocol B in Test Example 5. However, the administration period in this test example was changed to 4.5 days. […] Therefore, the compounds have proven to be useful as drugs for the treatment and prevention of cholestasis-caused hepatopathy, in particular as drugs for the treatment and prevention of primary biliary cirrhosis and primary sclerosing cholangitis. Moreover, the compounds of other examples of the present invention not shown in Tables 18 and 19 can be expected to have excellent ameliorating effects on cholestasis-caused hepatopathy.

A further series relates to Caco 2 cells. As to the kind of experiment: Toxicity with respect to alimentary canal: cytotoxicity to Caco 2, LDH activity (Test Example 12). The format is cell-based, human. Particulars: LDH activity after 2 hours; in words. How it is done: Toxicity With Respect to Alimentary Canal
To evaluate the toxicity of the compounds of the present invention to the alimentary canal, the cytotoxicity to Caco 2, which is a human originated small intestine epithelial cell line, was tested by referring to the method of Bestwick C S et al. [Biochimica et Biophysica Acta 1474: 47-55, 1999].
That is, Caco 2 cells (purchased from ATCC) were inoculated on a 96-well plate such that there were 10,000 cells/well [MEM-E medium, 10% FBS (Fetal Bovine Serum), 1% NEAA (Non Essential Amino Acid) solution, (both manufactured by GIBCO PHARMACEUTICAL COMPANY)]. After culturing for 48 hours, the test compounds were diluted with the culture medium and added to the respective wells. After 2 hours, 50 μl of the culture broth was collected and the LDH activity in the collected culture broth was measured by using an LDH activity measuring kit (CytoTox 96 Non-Radioactive Cytotoxicity Assay, manufactured by PROMEGA CORPORATION). Relative activities were calculated assuming the LDH activity as 100% when the Caco 2 cells were treated with the cytolytic agent and the obtained relative activities were taken as cytotoxicities to Caco 2 cell.

A further series concerns the target T1, human IBAT (Homo sapiens, UniProt Q12908).
T1 construct: expressed in transfected cells; host or cells: Cos 7
T1 sequence (Q12908 1-348): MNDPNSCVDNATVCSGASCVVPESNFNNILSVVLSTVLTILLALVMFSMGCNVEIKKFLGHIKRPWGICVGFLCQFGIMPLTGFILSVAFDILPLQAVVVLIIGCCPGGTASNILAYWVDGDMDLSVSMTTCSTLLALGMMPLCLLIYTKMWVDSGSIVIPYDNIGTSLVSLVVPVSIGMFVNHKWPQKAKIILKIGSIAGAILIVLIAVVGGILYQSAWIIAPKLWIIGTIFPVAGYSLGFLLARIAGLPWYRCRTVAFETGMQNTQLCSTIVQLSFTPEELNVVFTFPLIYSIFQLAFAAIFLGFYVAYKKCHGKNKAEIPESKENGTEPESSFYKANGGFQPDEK
As to the kind of experiment: In vitro assay of temporarily expressed human IBAT transporter using Cos 7 cells (Test Example 8). In kind it is cell-based. Particulars: Cos 7 cells temporarily expressing human IBAT; [3H] taurocholate 8 μM, 37° C., 60 minutes. The method, boiled down:
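Cos 7 cells transiently transfected with human or rat IBAT cDNA, assayed one day later in Hank's buffer with 25 mM glucose, 10 mM HEPES (pH 7.4) plus compound. Uptake of 8 μM [^3H]taurocholate over 60 min at 37 °C, stopped with 1 mM taurocholate washes; lysate radioactivity by scintillation counting.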

The target in a further series is T2, rat IBAT (Rattus norvegicus, UniProt Q62633).
T2 construct: expressed in transfected cells; host or cells: Cos 7
T2 sequence (Q62633 1-348): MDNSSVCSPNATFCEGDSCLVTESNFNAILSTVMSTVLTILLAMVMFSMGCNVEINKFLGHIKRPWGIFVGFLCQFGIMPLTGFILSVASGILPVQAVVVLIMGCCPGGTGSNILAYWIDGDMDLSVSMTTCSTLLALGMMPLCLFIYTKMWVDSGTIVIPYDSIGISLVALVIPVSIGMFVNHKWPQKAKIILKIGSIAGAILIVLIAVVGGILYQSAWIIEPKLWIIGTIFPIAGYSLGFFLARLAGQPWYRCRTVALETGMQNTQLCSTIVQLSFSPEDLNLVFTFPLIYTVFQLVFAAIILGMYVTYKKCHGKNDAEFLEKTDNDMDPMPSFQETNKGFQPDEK
As to the kind of experiment: In vitro assay of temporarily expressed rat IBAT transporter using Cos 7 cells (Test Example 8). The settings on record: Cos 7 cells temporarily expressing rat IBAT; [3H] taurocholate 8 μM, 37° C., 60 minutes. In kind it is cell-based. How it is done:
In Vitro Assay of Compounds Which Inhibit Temporarily Expressed Human IBAT Transporter or Rat IBAT Transporter Using Cos 7 Cells
In this test example, the in vitro assay of the compounds which inhibit temporarily expressed human IBAT transporter or rat IBAT transporter using Cos cells was carried out according to the method described in Am. J. Physiol., 274, G157-169.
That is, […] Cos 7 were inoculated on a 24-well cell plate. One day later, 0.3 μg per well of cDNA of a human IBAT or a rat IBAT was transfected by using FuGENE6 (manufactured by ROCHE PHARMACEUTICAL CO., LTD.). For the assay, the cells cultured for one day after the transfection were used and the following procedure was followed. The cells were washed once with an assay buffer, Hank's buffer solution containing 25 mM glucose and with 10 mM HEPES (pH 7.4), and then the assay buffer was replaced by an assay buffer to which the test compound was added. After adding [^3H] taurocholate to a final concentration of 8 μM, the cells were incubated at 37° C. for 60 minutes. [^3H] taurocholate was allowed to be incorporated in Cos 7 cells through human IBAT or rat IBAT. The reaction was stopped by washing twice with a buffer prepared by adding 1 mM taurocholate to the assay buffer and lyzing the cells with 0.2M NaOH. Measurement of radioactivity was carried out by introducing the cell lyzate in 4 ml of liquid scintillation cocktail, stirring the mixture well, and then measuring the radioactivity by a scintillation counter.

Series [2] deals with Cholic acid-loaded rat model. As to the kind of experiment: Bile acid-decreasing effect in portal vein of rats loaded with cholic acid (Test Example 2). The format is in vivo. The settings on record: 0.1 mg/kg oral with cholic acid 200 mg/kg; portal vein blood after 2 hours; Tween 20 0.05%. As for the experimental part:
Bile Acid-Decreasing Effect in Portal Vein of Rats Loaded With Cholic Acid
In this test example, the test for confirming the bile acid-decreasing effect in portal vein of cholic acid-loaded rats was carried out according to the method described in Pharmacology and Therapeutics [Jpn Pharmacol. Ther., Vol. 24 Supplement, 1996, 103 (S-577)-110 (S-584)].
That is, 7 to 9 weeks old SD (IGS) rats were starved on the day before the test and thereafter. […] After 2 hours from the administration, a sample of blood was taken from a portal vein and total serum bile acid level was measured to study the effect of the test compound (n=6). Further, as a control group, a group (n=6) loaded with cholic acid (200 mg/kg) only was prepared and the same test procedure was followed. A commercially available kit (trade name: SOTANJUSAN-TEST WAKO-(SOTANJUSAN=total bile acid), manufactured by WAKO PURE CHEMICAL […], LTD.) was used for the measurement of bile acid. Assuming the value of the control group, which is a group in which no test compound was used, as 100%, the rate of decrease (percentage (%) of decrease) of the bile acid level when a fixed amount of the test compound was used was determined.

In the case of `CCCC[C@@]1(CC)CS(=O)(=O)c2cc(OC)c(OC)cc2[C@H](c2ccccc2)N1` (relative stereo) [Compound B, Trans-3-butyl-3-ethyl-2,3,4,5-tetrahydro-7,8-dimethoxy-5-phenyl-1,4-benzothiazepine-1,1-dioxide], in series [1] (Table 17, 1 mg/kg oral), the ALP is on record as 1335 ± 116 IU/L, the ALT was 138 ± 54 IU/L and the AST was determined as 261 ± 63 IU/L. Also, in the series with bile acid loaded model (Table 19, 0.1 mg/kg), the ALT was found to be 54 ± 6 IU/L and the AST came out at 110 ± 4 IU/L.

Turning to `CCCC[C@@]1(CC)CS(=O)(=O)c2ccccc2[C@H](c2ccccc2)N1` (relative stereo) [Compound C, Trans-3-butyl-3-ethyl-2,3,4,5-tetrahydro-5-phenyl-1,4-benzothiazepine-1,1-dioxide], in series [1] (Table 16, 10 mg/kg oral), the ALP was 948 ± 208 IU/L, the ALT amounted to 113 ± 44 IU/L and the AST was 313 ± 82 IU/L. In the series with bile acid loaded model (Table 18, 10 mg/kg), this molecule came in with an ALT of 53 ± 6 IU/L and an AST of 100 ± 2 IU/L.

As to `CCCCC1(CCCC)CS(=O)(=O)c2ccc(N(C)C)cc2[C@H](c2cccc([N+](C)(C)C)c2)[C@@H]1O.[I-]` (relative stereo) [Compound D, Cis-[3-(3,3-dibutyl-7-dimethylamino-4-hydroxy-1,1-dioxo-2,3,4,5-tetrahydro-1-benzothiepin-5-yl)phenyl]trimethyl-ammonium iodide], in series [1] (Table 16, 10 mg/kg oral), the ALP is on record as 715 ± 24 IU/L, the ALT is on record as 73 ± 17 IU/L and the AST amounted to 275 ± 12 IU/L. Also, in the series with bile acid loaded model (Table 18, 10 mg/kg), the ALT is on record as 46 ± 4 IU/L and the AST was 100 ± 9 IU/L.

In the case of `CCCCC1(CCCC)CS(=O)(=O)c2ccc(N(C)C)cc2C(c2ccc(OCc3ccc(C[N+]45CCN(CC4)CC5)cc3)cc2)N1.[Cl-]` (stereo not shown) [Comparative Example 2, 1-{4-[4-(3,3-Dibutyl-7-dimethylamino-1,1-dioxo-2,3,4,5-tetrahydro-1,4-benzothiazepin-5-yl)phenoxymethyl]benzyl}-4-aza-1-azoniabicyclo[2.2.2]octane chloride], in series [1] (Table 17, 10 mg/kg oral), the ALP is given as 1266 ± 160 IU/L, the ALT was determined as 281 ± 103 IU/L and the AST amounted to 547 ± 159 IU/L. For the same molecule, the “cytotoxicity to Caco 2 cells” value with Caco 2 cells is reported as “showed cytotoxicity to small intestine epithelial cell line at low concentrations”.

In series [1] (Table 17, 10 mg/kg oral), `CCC(CC)CC(=O)c1c(C(=O)OC)c(-c2ccc(OC)c(OC)c2)c2c(OC)c(OC)c(OC)cc2c1O` [Compound E, Methyl 1-(3,4-dimethoxyphenyl)-3-(3-ethylvaleryl)-4-hydroxy-6,7,8-trimethoxy-2-naphthoate] returned an ALP of 1345 ± 145 IU/L, an ALT of 180 ± 68 IU/L and an AST of 280 ± 72 IU/L. Moreover, in the series on bile acid loaded model (Table 19, 10 mg/kg), the ALT is recorded as 46 ± 3 IU/L and the AST worked out at 105 ± 11 IU/L.

In series [1] (Table 17, 10 mg/kg oral), `CCC(CC)CC(=O)c1c(C(=O)OC)c(-c2ccc(OC)c(OC)c2)c2c(OC)c(OC)c(OC)cc2c1OC1OC(C(=O)O)C(O)C(O)C1O` [Compound F, {1-O-[4-(3,4-dimethoxyphenyl)-2-(3-ethyl-pentanoyl)-5,6,7-trimethoxy-3-(methoxycarbonyl)naphthalen-1-yl]-β-D-glucopyranosido}uronic acid] had an ALP of 1423 ± 115 IU/L, an ALT of 214 ± 53 IU/L and an AST of 320 ± 66 IU/L. In the series with bile acid loaded model (Table 19, 10 mg/kg), the ALT came to 58 ± 5 IU/L and the AST stood at 123 ± 16 IU/L.

As usually defined, the IC50 is the concentration that inhibits the measured activity by half. A high value points to a need for much substance. `CCCCC1(CCCC)CS(=O)(=O)c2ccc(N(C)C)cc2C(c2cccc(NC(=S)NCCC[N+]34CCC(CC3)CC4)c2)N1` (stereo not shown) [Example 9, 1-(3-{3-[3,3-Dibutyl-7-dimethylamino-1,1-dioxo-2,3,4,5-tetrahydro-1,4-benzothiazepin-5-yl)phenyl]thioureido}-propyl)-1-azoniabicyclo[2.2.2]octane bromide]: the figures for the IC50 on human IBAT and against rat IBAT were 76 nM and 36 nM, respectively.

As for `CCCCC1(CCCC)CS(=O)(=O)c2ccc(N(C)C)cc2C(c2cccc(NC(=S)CCCCCCC[N+]34CCC(CC3)CC4)c2)N1` (stereo not shown) [Example 3932], the IC50 at human IBAT turned out to be 36 nM; at rat IBAT, 9 nM. In addition, the “Rate of decrease (%) of bile acid” value in series [2] is 30%.
